Measurements published in ChEMBL document CHEMBL3137667, “[Drug-induced liver injury; fourteenth updated edition of the bibliographic database of liver injuries and related drugs]” (Gastroenterol Clin Biol, 2004).

Assays:
[1] = Highest frequency of moderate liver toxicity observed during clinical trials, expressed as a percentage. [column '% BIOL' in source]; conditions: human
[2] = Highest frequency of acute liver toxicity observed during clinical trials, expressed as a percentage. [column '% AIGUE' in source]; conditions: human
[3] = Presence of at least one case with successful reintroduction. [column 'REINT' in source]; conditions: human
[4] = Times to onset, minimal and maximal, observed in the indexed observations. [column 'DELAI' in source]; conditions: human
[5] = Proposed mechanism(s) of liver damage. [column 'MEC' in source]; conditions: human
[6] = human, serum
[7] = human, serum; remark: listed apart in the source
[8] = human
[9] = human; remark: listed apart in the source
[10] = human; remark: listed apart in the source
[11] = human, serum, 4383 h
[12] = human; remark: listed apart in the source
[13] = human; remark: listed apart in the source
[14] = human; remark: listed apart in the source
[15] = human; remark: listed apart in the source
[16] = human; remark: listed apart in the source
[17] = human; remark: listed apart in the source
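Throughout, for Hepatotoxicity (association with vascular disease): count of indexed literature references reporting vascular liver injury in humans, e.g. peliosis hepatitis, hepatic veno-occlusive disease or Budd-Chiari syndrome.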
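Throughout, for Hepatotoxicity (benign tumour): value is a count of indexed literature references citing a benign tumour confirmed by histopathology.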
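Throughout, for Hepatotoxicity (choleostasis): human cholestatic liver injury, shown by histopathology or by peak ALT or AST elevation over alkaline phosphatase ratio below 2, value counts indexed literature reports.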
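Throughout, for Hepatotoxicity (chronic liver disease): chronic liver injury confirmed by histopathology or persistently raised serum aminotransferase activity beyond 6 months, value given as the count of indexed literature references.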
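Throughout, for Hepatotoxicity (cirrhosis): value is a count of indexed literature references reporting cirrhosis confirmed by histopathology.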
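Throughout, for Hepatotoxicity (cytolytic): human cytolytic liver injury, shown by histopathology or by a ratio above 5 of peak ALT or AST elevation to alkaline phosphatase elevation, value counts indexed references.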
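Throughout, for Hepatotoxicity (granulomatous hepatitis): value is a count of indexed literature references reporting granulomatous liver disease confirmed by histopathology.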
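Throughout, for Hepatotoxicity (malignant tumour): malignant tumour confirmed by histopathology, value gives the count of indexed literature references reporting it.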
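Throughout, for Hepatotoxicity (severe hepatitis): human clinical data: severe hepatitis, meaning potentially life-threatening liver failure or clinically observed cases, the value counts how many indexed literature references report it.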
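Throughout, for Hepatotoxicity (steatosis): steatosis confirmed by histopathology, value is the count of indexed references.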

SMILES	Hepatotoxicity (moderate) ([1]; Liver)	Hepatotoxicity (acute) ([2]; Liver)	Hepatotoxicity (successful reintroduction) [3]	Hepatotoxicity (time to onset) [4]	Hepatotoxicity (moderate) [6]	Hepatotoxicity (acute) [7]	Hepatotoxicity (severe hepatitis) ([10]; Liver)	Hepatotoxicity (chronic liver disease) [11]	Hepatotoxicity (cirrhosis) [12]	Hepatotoxicity (association with vascular disease) [14]	Hepatotoxicity (steatosis) [15]	Hepatotoxicity (malignant tumour) [16]	Hepatotoxicity (benign tumour) [17]	Hepatotoxicity (moderate) [1]	Hepatotoxicity (acute) [2]	Hepatotoxicity (mechanism) [5]	Hepatotoxicity (cytolytic) [8]	Hepatotoxicity (choleostasis) [9]	Hepatotoxicity (severe hepatitis) [10]	Hepatotoxicity (granulomatous hepatitis) [13]	also measured
CCN(CC)Cc1cc(Nc2ccnc3cc(Cl)ccc23)ccc1O.Cl	0%	6.7%	yes	1 week - 1 year	2	18	8	0	1	0	0	0	0								Hepatotoxicity (mechanism) ([5]; Liver): Allergic, Dose-dependant, Reactive metabolite; Hepatotoxicity (cytolytic) ([8]; Liver): 11; Hepatotoxicity (choleostasis) ([9]; Liver): 4; Hepatotoxicity (granulomatous hepatitis) ([13]; Liver): 0
CCc1nc(N)nc(N)c1-c1ccc(Cl)cc1.COc1ncnc(NS(=O)(=O)c2ccc(N)cc2)c1OC			yes	1 day - 3 months	11	14		0	0	0	0	0	0	22.5%	23.5%	Allergic	5	4	3	2	
CCOC(N)=O			yes	1 year - 2 years	0	5		0	1	3	0	0	0	0%	0%	Dose-dependant	5	1	4	0	
CCCC(=O)Nc1ccc(OCC(O)CNC(C)C)c(C(C)=O)c1 (stereo not drawn) [ACEBUTOLOL]	0%	0%	yes	1 day - 1 month	0		0	0	0	0	0	0	0			Allergic	1	1		0	
CC[C@@]1(O)C[C@H](O[C@H]2C[C@H](N(C)C)[C@H](O[C@H]3C[C@H](O)[C@H](O[C@H]4CCC(=O)[C@H](C)O4)[C@H](C)O3)[C@H](C)O2)c2c(cc3c(c2O)C(=O)c2c(O)cccc2C3=O)[C@H]1C(=O)OC [ACLARUBICIN]			yes		8	0		0	0	0	0	0	0	26.7%	0%	Dose-dependant	0	0	1	0	
CCCSc1ccc2nc(NC(=O)OC)[nH]c2c1 [ALBENDAZOLE]	100%	5%	yes	1 week - 6 months	25	8	0	0	0	0	0	0	0			Reactive metabolite	3	2		0	
NCC(=O)CCC(=O)O [AMINOLEVULINIC ACID]			yes	3 days	7	0		0	0	0	0	0	0	66.7%	0%	Dose-dependant	0	0	0	0	
COC(=O)C1=C(C)NC(C)=C(C(=O)OC)C1c1ccccc1[N+](=O)[O-] [NIFEDIPINE]			yes	2 days - 6 years	6			0	0		3	0	0	12%	4%	Allergic	5	7	2	0	
Nc1nc2ccc(OC(F)(F)F)cc2s1 [RILUZOLE]			yes	15 days - 9 months	5	5		0	0		1	0	0	17%	3.8%	Dose-dependant	5	0	0	0	
Clc1ccc2nsnc2c1NC1=NCCN1 [TIZANIDINE]	0%		yes	6 days - 3.5 months	2		2	0	0	0	1	0	0								Hepatotoxicity (mechanism) ([5]; Liver): Allergic; Hepatotoxicity (cytolytic) ([8]; Liver): 1; Hepatotoxicity (choleostasis) ([9]; Liver): 0; Hepatotoxicity (granulomatous hepatitis) ([13]; Liver): 0
